Reference: patent publication US11174282B2, “Aminosteroid derivatives and process for producing same” (UNIVERSITÉ LAVAL, priority 2016, dated 2021)
“Also recorded” adds a separate entry of the source. Read-outs that look alike come from different tables or passages of the source.

How the values were obtained:
[1] = tested on: renal proximal tubule epithelial cells (RPTEC); experiment: Toxicity on normal cells (MTS), RPTEC; assay type: cell-based, human
Experimental: (§1) The different aminosteroids were dissolved in methanol (50 mM).

[2] = tested on: primary ovary normal cells; experiment: cells; assay type: cell-based, human; settings: for Selectivity Index Ovary: IC50 normal cells/IC50 cancer cells (primary ovary / OVCAR-3)
Experimental: as §1

[3] = Metabolic stability assay, human liver microsomes; settings: 1 h; for increased metabolic stability relative to RM-133: human hepatic microsomes
Experimental: (§2) Assays were performed at 37° C. for 1 h, with or without 10 mM NADPH in the presence of 40 μg of human liver microsome from Corning (Melrose, Mass., USA) and 10 μM of aminosteroid substrate in a final 100 μL volume of 50 mM Tris buffer (pH 7.4) supplemented with 10 mM MgCl2. Assays were ended by adding 100 μL of MeOH followed by centrifugation at 13,000 g for 10 min to obtain a pellet of proteins. The supernatant of 2 assays was pooled and submitted to HPLC-MS analysis (Shimadzu LCMS-2020 APCI, Alltima HP C18 (250 mm×4.6 mm, 5 μm) column, MeOH:H2O gradient). Remaining substrate (expressed in %) was calculated by dividing the area under the curve of the substrate for the assays without NADPH by the area under the curve of the substrate for the assays with NADPH and multiplied by 100. Values represent the average of 2 independent experiments.

[4] = tested on: primary pancreas, primary ovary and renal proximal tubule epithelial cells (RPTEC); experiment: Toxicity on the normal cell types tested; settings: higher concentration tested 50 μM
Experimental: Human primary epithelial pancreas and ovary cells were obtained from Cedarlane (Chicago, Ill., USA) and were cultured in the manufacturer recommended medium. Human renal proximal tubule epithelial cells (RPTEC) were obtained from Lonza (Mississauga, ON, Canada) and were maintained in DMEM-F12 supplemented as previously reported [4]. The cell lines were all maintained under a 5% CO2 humidified atmosphere at 37° C. and the culture medium was changed every 2 to 3 days and the cells were split once a week to maintain cell propagation.
The cell proliferation assay was performed using 3-(4,5-dimethylthiazol-2-yl)-5-(3-carboxymethoxyphenyl)2-(4-sulfophenyl)-2H-tetrazolium (MTS) (Cell Titer 96 Aqueous, Promega, Nepean, ON, Canada) as previously described [3, 4, 5]. Briefly, cells were plated in triplicate in 96-well plates (1×10^4 cells/well) in appropriate culture medium (total of 90 μL). Before each treatment, the cells were incubated at 37° C. in a 5% CO2 humidified atmosphere for 24 h. The different aminosteroids were dissolved in methanol (50 mM). The stock solutions were diluted at multiple concentrations with culture media in order to obtain the desired final concentration followed by the addition of 10 μL to each well, and the mixture incubated for 3 days. Following treatment, MTS (10 μL) was added to each well and the mixture was incubated for 4 h. […] Selectivity was calculated by dividing the IC50 obtained for a specific primary cell by the IC50 for the related cancer cell line.

[5] = tested on: OVCAR-3 cells (ovarian cancer); experiment: Cell proliferation assay (MTS), OVCAR-3; assay type: cell-based; settings: for IC50: read-out: IC50 (μM) Ovarian cancer OVCAR-3; for antiproliferative activity relative to RM-133, OVCAR-3: fold of RM-133 activity (>1 = more active)
Experimental: as §1

[6] = tested on: HL-60 (acute promyelocytic leukemia) cells; experiment: Cell proliferation assay (MTS), HL-60; assay type: cell-based; settings: for IC50: read-out: IC50 (μM) HL-60 (leukemia); for antiproliferative activity relative to RM-133, HL-60: fold of RM-133 activity (>1 = more active)
Experimental: as §1

[7] = tested on: Human pancreas cancer cells (PANC-1); experiment: Cell proliferation assay (MTS), PANC-1; assay type: cell-based; settings: for IC50: read-out: IC50 (μM) Pancreatic cancer PANC-1; for antiproliferative activity relative to RM-133, PANC-1: fold of RM-133 activity (>1 = more active)
Experimental: as §1

[8] = tested on: primary pancreas normal cells; experiment: Toxicity on normal cells (MTS), primary pancreas; assay type: cell-based, human; settings: for IC50: human normal cells; for Selectivity Index Pancreas: IC50 normal cells/IC50 cancer cells (primary pancreas / PANC-1)
Experimental: as §1

[9] = tested on: LAPC-4 (prostate cancer) cells; experiment: Cell proliferation assay (MTS), LAPC-4; assay type: cell-based; settings: read-out: IC50 (μM) Prostate cancer LAPC-4
Experimental: as §1

[10] = tested on: PANC-1, BxPC-3, Hs766, OVCAR-3, Caov3, SKOV3, MCF-7, T-47D and LAPC-4 cell lines; experiment: Cytotoxic activity screening at 5 and 1 μM on cancer cell lines; settings: independently of the cancer cell line tested, result in words
Experimental: The cell proliferation assay was performed using 3-(4,5-dimethylthiazol-2-yl)-5-(3-carboxymethoxyphenyl)2-(4-sulfophenyl)-2H-tetrazolium (MTS) (Cell Titer 96 Aqueous, Promega, Nepean, ON, Canada) as previously described [3, 4, 5]. Briefly, cells were plated in triplicate in 96-well plates (1×10^4 cells/well) in appropriate culture medium (total of 90 μL). Before each treatment, the cells were incubated at 37° C. in a 5% CO2 humidified atmosphere for 24 h. The different aminosteroids were dissolved in methanol (50 mM). The stock solutions were diluted at multiple concentrations with culture media in order to obtain the desired final concentration followed by the addition of 10 μL to each well, and the mixture incubated for 3 days. Following treatment, MTS (10 μL) was added to each well and the mixture was incubated for 4 h.

[11] = human, 1 h, 10 μM, pH 7.4
Experimental: as §2

[12] = tested on: MCF-7 breast cancer cells; experiment: Cell proliferation assay (MTS), MCF-7; assay type: cell-based, human; settings: Homo sapiens, MCF7, 72 h, 3 days treatment
Experimental: as §1

[13] = tested on: LNCaP (prostate cancer) cells; experiment: Cell proliferation assay (MTS), LNCaP; assay type: cell-based; settings: Homo sapiens, 72 h, 3 days treatment, MTS, read-out: IC50 (μM) Prostate cancer LNCaP
Experimental: as §1

[14] = tested on: PC-3 (prostate cancer) cells; experiment: Cell proliferation assay (MTS), PC-3; assay type: cell-based; settings: 72 h; 3 days treatment, MTS; read-out: IC50 (μM) Prostate cancer PC-3
Experimental: as §1

[15] = tested on: T-47D breast cancer cell line; experiment: Cell proliferation assay (MTS), T-47D; assay type: cell-based; settings: Homo sapiens, T47D, 72 h; 3 days treatment, MTS
Experimental: as §1

[16] = normal (kidney) cells, read-out: IC50 (μM) RPTEC (normal cells)
[17] = human normal cells, read-out: IC50 (μM) Primary Ovary (normal cells)
[18] = Homo sapiens, OVCAR-3, 72 h, 3 days treatment, MTS
[19] = Homo sapiens, HL-60, 72 h, 3 days treatment, MTS

For C#C[C@]1(OC(C)=O)CC[C@H]2[C@@H]3CC[C@H]4C[C@H](OC(C)=O)[C@@H](N5CCN(C(=O)[C@@H]6CCCN6C(=O)c6ccc7ccccc7n6)CC5)C[C@]4(C)[C@H]3CC[C@@]21C [5 (3,17-diester), (2β,3α,5α,17α)-2-{4-[1-(quinolin-2-ylcarbonyl)-L-prolyl]piperazin-1-yl}pregn-20-yne-3,17-diyl diacetate], the IC50 [1, 16] was 45.5 µM, the IC50 [2, 17] was 25.4 µM and the “increased metabolic stability relative to RM-133” value [3] was 3.5 fold. The “toxicity on the normal cell types tested” value [4] was “increased toxicity relative to the mono-ester derivative 4”, the IC50 ([5]; 3 days treatment, MTS) was 13.1 µM and the “antiproliferative activity relative to RM-133, OVCAR-3” value [5] was 0.4 fold. For the same compound, the IC50 ([6]; 3 days treatment, MTS) was 6.44 µM, the “antiproliferative activity relative to RM-133, HL-60” value [6] was “activity similar to RM-133” and the IC50 ([7]; 3 days treatment, MTS) was 25 µM. For the same compound, the “antiproliferative activity relative to RM-133, PANC-1” value [7] was 0.3 fold and the IC50 [8] was 16.6 µM.
For C#C[C@@]1(O)CC[C@H]2[C@@H]3CC[C@H]4C[C@H](OC(C)=O)[C@H](N5CCN(C(=O)[C@@H]6CCCN6C(=O)c6ccc7ccccc7n6)CC5)C[C@]4(C)[C@H]3CC[C@@]21C [4 (3-ester), (2α,3α,5α,17α)-17-hydroxy-2-{4-[1-(quinolin-2-ylcarbonyl)-L-prolyl]piperazin-1-yl}pregn-20-yn-3-yl acetate], the IC50 [1, 16] was 32.1 µM, the “Selectivity Index Ovary” value [2] was 11.0 and the IC50 [2, 17] was 42 µM. The “increased metabolic stability relative to RM-133” value [3] was 3.1 fold, the “toxicity on the normal cell types tested” value [4] was “very low toxicity” and the IC50 ([5]; 3 days treatment, MTS) was 3.83 µM. The “antiproliferative activity relative to RM-133, OVCAR-3” value [5] was 1.4 fold, the IC50 ([6]; 3 days treatment, MTS) was 6.44 µM and the “antiproliferative activity relative to RM-133, HL-60” value [6] was 1.1 fold. The IC50 ([7]; 3 days treatment, MTS) was 6.24 µM, the “antiproliferative activity relative to RM-133, PANC-1” value [7] was 1.1 fold and the “Selectivity Index Pancreas” value [8] was 4.8. For the same compound, the IC50 [8] was 30.1 µM.
In the case of C#C[C@@]1(O)CC[C@H]2[C@@H]3CCc4cc(OC(=O)N(C)C)c(N5CCN(C(=O)[C@@H]6CCCN6C(=O)c6ccc7ccccc7n6)CC5)cc4[C@H]3CC[C@@]21C [Compound 1, (17β)-17-ethynyl-17-hydroxy-2-{4-[1-(quinolin-2-ylcarbonyl)-L-prolyl]piperazin-1-yl}estra-1,3,5(10)-trien-3-yl dimethylcarbamate], the IC50 ([1]; Homo sapiens, RPTEC, read-out: IC50 (μM) Normal Cells Kidney) is reported as at least 50 µM, the IC50 ([2]; Homo sapiens, read-out: IC50 (μM) Normal Cells Ovary) is reported as at least 50 µM and the IC50 ([5]; Homo sapiens, OVCAR-3, 72 h) is reported as 6.4 µM. For the same compound, the IC50 ([6]; Homo sapiens, HL-60, 72 h) was 4.3 µM, the IC50 ([7]; Homo sapiens, PANC-1, 72 h) was 9.6 µM and the IC50 ([9]; Homo sapiens, LAPC4, 72 h) was 1.3 µM. For the same compound, the “cytotoxic activity in screening (cell survival)” value (“cytotoxic activity in screening” below) [10] was “only slight differences in their respective levels of activity”.
In the case of C#C[C@@]1(O)CC[C@H]2[C@@H]3CC[C@H]4C[C@H](OC(=O)N(C)C)[C@@H](N5CCN(C(=O)[C@@H]6CCCN6C(=O)c6ccc7ccccc7n6)CC5)C[C@]4(C)[C@H]3CC[C@@]21C [3 (3-carbamate), (2β,3α,5α,17α)-17-hydroxy-2-{4-[1-(quinolin-2-ylcarbonyl)-L-prolyl]piperazin-1-yl}pregn-20-yn-3-yl dimethylcarbamate], the IC50 ([1]; Homo sapiens, RPTEC, normal (kidney) cells, read-out: IC50 (μM) RPTEC (normal cells)) is reported as 24.2 µM, the “Selectivity Index Ovary” value [2] is reported as over 2.5 and the IC50 [2, 17] is reported as over 50 µM. The “toxicity on the normal cell types tested” value [4] was “very low toxicity; also recorded: no cytotoxicity was observed”, the IC50 [5, 18] was 20 µM and the “antiproliferative activity relative to RM-133, OVCAR-3” value [5] was 0.3 fold. For the same compound, the IC50 [6, 19] was 7.95 µM, the “antiproliferative activity relative to RM-133, HL-60” value [6] was 0.9 fold and the IC50 ([7]; Homo sapiens, PANC-1, 72 h, 3 days treatment, MTS) was 9.99 µM. For the same compound, the “antiproliferative activity relative to RM-133, PANC-1” value [7] was 0.7 fold, the “Selectivity Index Pancreas” value [8] was over 5.0 and the IC50 [8] was over 50 µM. For the same compound, the “increased metabolic stability relative to RM-133” value ([11]; microsomes) was 5.9 fold.
Compound C#C[C@@]1(O)CC[C@H]2[C@@H]3CCc4cc(OC(C)=O)c(N5CCN(C(=O)[C@@H]6CCCN6C(=O)c6ccc7ccccc7n6)CC5)cc4[C@H]3CC[C@@]21C [Compound 3, (17β)-17-ethynyl-17-hydroxy-2-{4-[1-(quinolin-2-ylcarbonyl)-L-prolyl]piperazin-1-yl}estra-1,3,5(10)-trien-3-yl acetate] has an IC50 [12] of 1.4 ± 0.1 µM, an IC50 [13] of 0.8 ± 0.3 µM and an IC50 ([1]; Homo sapiens, RPTEC, relative toxicity on human normal cells, read-out: IC50 (μM) Normal Cells Kidney) of at least 50 µM. For the same compound, the IC50 ([2]; relative toxicity on human normal cells, read-out: IC50 (μM) Normal Cells Ovary) was at least 50 µM, the “toxicity on the normal cell types tested” value [4] was “did not trigger any loss of cell viability even at concentrations as high as 50 μM” and the IC50 ([5]; 3 days treatment, MTS) was 3.4 µM. It also gave an IC50 [5, 18] of 3.9 ± 0.4 µM, an IC50 [6, 19] of 4.3 µM and an IC50 [14] of 1.4 ± 0.3 µM. The “phenolic metabolite RM-581-OH (stability of potential prodrugs to hydrolysis)” value [11] was “no trace of the phenolic metabolite RM-581-OH could be observed”, the IC50 ([9]; 3 days treatment, MTS) was 0.6 µM and the IC50 ([9]; Homo sapiens, LAPC4, 72 h, 3 days treatment, MTS) was 0.5 ± 0.4 µM. It also gave an IC50 [15] of 0.4 ± 0.2 µM.
With C#C[C@@]1(O)CC[C@H]2[C@@H]3CCc4cc(OC(=O)N(CC)CC)c(N5CCN(C(=O)[C@@H]6CCCN6C(=O)c6ccc7ccccc7n6)CC5)cc4[C@H]3CC[C@@]21C [Compound 2, (17β)-17-ethynyl-17-hydroxy-2-{4-[1-(quinolin-2-ylcarbonyl)-L-prolyl]piperazin-1-yl}estra-1,3,5(10)-trien-3-yl diethylcarbamate] the “cytotoxic activity in screening” value [10] was “marked weaker cytotoxic activity; also recorded: significant losses of activity”.
With C#C[C@@]1(O)CC[C@H]2[C@@H]3CCc4cc(C(C)O)c(N5CCN(C(=O)[C@@H]6CCCN6C(=O)c6ccc7ccccc7n6)CC5)cc4[C@H]3CC[C@@]21C (stereo partly drawn) [Compound 18, {4-[(17β)-17-ethynyl-17-hydroxy-3-(1-hydroxyethyl)estra-1,35(10)-trien-2-yl]piperazin-1-yl}[(2S)-1-(quinolin-2-ylcarbonyl)pyrrolidin-2-yl]methanone] the “metabolic stability (% of remaining compound)” value ([3]; 10 μM, 40 μg human liver microsomes, result in words) was “slightly lower values” and the “cytotoxic activity in screening” value [10] was “only slight differences in their respective levels of activity”.
